Test results published in patent US20090099195A1 (ASTRAZENECA AB, priority 2007, published 2009).

Tests used:
[1] = biological target: T1, hP2X3 (human Purinergic P2X receptors subtype 3), clone B (Homo sapiens, UniProt P56373); experiment: hP2X3 FLIPR calcium (Fluo-4) antagonist assay, clone B; conditions: Human P2X3 FLIPR Clone B IC50 (nM), RLE cells expressing hP2X3 clone B (NM_002559); agonist 500 nM α,β-methylene-ATP
T1 sequence (P56373 1-397): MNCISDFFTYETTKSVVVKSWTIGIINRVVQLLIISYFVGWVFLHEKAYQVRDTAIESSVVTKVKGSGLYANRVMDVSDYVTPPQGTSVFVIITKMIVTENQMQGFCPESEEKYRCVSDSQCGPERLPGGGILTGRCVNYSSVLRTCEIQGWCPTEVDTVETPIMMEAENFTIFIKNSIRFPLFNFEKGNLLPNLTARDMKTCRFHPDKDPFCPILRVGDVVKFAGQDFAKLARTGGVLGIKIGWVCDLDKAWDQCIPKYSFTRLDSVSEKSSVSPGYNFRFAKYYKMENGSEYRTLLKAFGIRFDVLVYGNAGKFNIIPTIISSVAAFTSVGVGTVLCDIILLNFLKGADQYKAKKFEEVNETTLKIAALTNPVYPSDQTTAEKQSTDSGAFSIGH

[2] = biological target: T2, rat P2X2/3 (rat P2X3 co-expressed with rat P2X2) (Rattus norvegicus, UniProt P49653+P49654); experiment: rat P2X2/3 FLIPR calcium (Fluo-4) antagonist assay; conditions: Rat P2X2/3 FLIPR Mean IC50 (nM), HEK-TREX cells, tetracycline-induced rat P2X3 with constitutive rat P2X2; agonist 500 nM α,β-methylene-ATP
T2 sequence (P49654 1-397): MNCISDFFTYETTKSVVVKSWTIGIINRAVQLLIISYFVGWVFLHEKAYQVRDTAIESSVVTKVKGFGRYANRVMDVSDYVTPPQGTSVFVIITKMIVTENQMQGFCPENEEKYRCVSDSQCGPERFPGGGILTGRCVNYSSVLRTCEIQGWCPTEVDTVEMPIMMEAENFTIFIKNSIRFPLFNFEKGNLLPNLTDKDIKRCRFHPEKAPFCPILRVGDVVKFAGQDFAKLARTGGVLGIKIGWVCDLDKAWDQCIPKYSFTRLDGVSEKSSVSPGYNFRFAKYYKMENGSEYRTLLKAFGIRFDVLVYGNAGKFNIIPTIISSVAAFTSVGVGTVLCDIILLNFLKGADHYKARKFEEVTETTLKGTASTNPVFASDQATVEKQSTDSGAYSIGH
T2 sequence (P49653 1-472): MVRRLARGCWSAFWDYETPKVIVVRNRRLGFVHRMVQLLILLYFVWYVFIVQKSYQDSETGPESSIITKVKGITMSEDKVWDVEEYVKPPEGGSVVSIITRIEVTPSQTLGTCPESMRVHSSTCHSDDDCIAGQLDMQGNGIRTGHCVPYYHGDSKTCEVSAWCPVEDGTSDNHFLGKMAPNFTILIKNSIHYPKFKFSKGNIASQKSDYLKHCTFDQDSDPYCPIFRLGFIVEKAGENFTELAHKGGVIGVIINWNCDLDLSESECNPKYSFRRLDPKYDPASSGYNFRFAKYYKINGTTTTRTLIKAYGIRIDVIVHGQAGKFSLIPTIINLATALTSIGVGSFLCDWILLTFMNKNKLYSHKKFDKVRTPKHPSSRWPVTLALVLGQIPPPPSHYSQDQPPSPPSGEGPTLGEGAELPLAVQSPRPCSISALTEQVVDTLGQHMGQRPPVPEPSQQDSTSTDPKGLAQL
Protocol: The assay used a calcium indicator dye (Fluo-4) that emits fluorescence, the intensity of which is related to the concentration of calcium that entered the cell when P2X3 was activated and the channel opened. Activation of hP2X3 or rat P2X3 and rat P2X2/3 (from the coexpression of rat P2X3 and rat P2×2) is elicited the by P2X3 agonist α,β methylene-ATP (Sigma M6517), and the resulting fluorescence is measured with a FLIPR II™ instrument (Molecular Devices). Compounds are tested for their ability to inhibit the agonist-induced fluorescent signal.
For the rat P2X2/3 HEK-TREX cells, induction of the rat P2X3 expression is used to generate the rat P2X2/3 channels in HEK-TREX cells and performed by addition of 1 μg/mL tetracycline (Invitrogen) 24 h prior to compounds testing to the HEK-TREX expressing the rat P2X2 constitutively. On the day of the experiment, the cells and test compounds are prepared as follows. […] After preparing the compounds, the medium is removed from the cell plates by inversion. A loading solution of 30 μL assay buffer containing 4 μM of the calcium indicator dye FLUO-4 AM (Molecular Probes F14202) is added to each well using a Multidrop (Labsystems). […] The incubation is terminated by washing the cells four times in assay buffer using a Skatron Embla (Molecular Devices), and 25 μL of assay buffer was left in each well. Cell plates are then transferred to the FLIPR. Experiments are initiated by measuring a baseline fluorescence reading for 10 seconds, followed by the addition of 12.5 μL of cpds and data sampling for a total 280 seconds. The experiments are terminated by addition of 12.5 μL of a reference agonist (500 nM α,β-methylene-ATP) or buffer, producing a final assay volume of 50 μL followed by data sampling for an additional 280 seconds.
In P2X3 antagonist experiments (human and rat assays) data are analysed as normalised maximal peak fluorescence monitored following agonist addition and calculated as percent of relative fluorescent counts from control agonist. The dose-response antagonist inhibition curves are analyzed in a 4-parameter sigmoidal fit using a non-linear curve-fitting program (XLfit version 5.0.6, ID Business Solutions Limited, Guildford, UK).

Structure (SMILES)	IC50 [1]	IC50 [2]
CC(=O)N1CCN(c2nc(NCc3nnc(-c4ccccc4)o3)c3c(n2)C(=O)N(C(C)C)C3)CC1 [Example 148, 4-(4-acetylpiperazin-1-yl)-2-[(5-phenyl-1,3,4-oxadiazol-2-yl)methylamino]-8-propan-2-yl-3,5,8-triazabicyclo[4.3.0]nona-1,3,5-trien-7-one]	160 nM	6750 nM
CC(=O)N1CCN(c2nc(N[C@H](C)c3cccc(C(F)(F)F)c3)c3c(n2)C(=O)N(C(C)C)C3)CC1 [Example 230, (R)-2-(4-acetylpiperazin-1-yl)-6-isopropyl-4-(1-(3-(trifluoromethyl)phenyl)ethylamino)-5H-pyrrolo[3,4-d]pyrimidin-7(6H)-one]	87 nM	7380 nM
CC(=O)N1CCN(c2nc(N[C@H](C)c3ccc4c(c3)CCCC4)c3c(n2)C(=O)N(C(C)C)C3)CC1 [Example 166, (R)-2-(4-acetylpiperazin-1-yl)-6-isopropyl-4-(1-(5,6,7,8-tetrahydronaphthalen-2-yl)ethylamino)-5H-pyrrolo[3,4-d]pyrimidin-7(6H)-one]	47 nM	1900 nM
CC(=O)N1CCN(c2nc(N[C@H](C)c3cnc4ccccc4c3)c3c(n2)C(=O)N(C(C)C)C3)CC1 [Example 233, (R)-2-(4-acetylpiperazin-1-yl)-6-isopropyl-4-(1-(quinolin-3-yl)ethylamino)-5H-pyrrolo[3,4-d]pyrimidin-7(6H)-one]	21 nM	74.4 nM
CC(=O)N1CCN(c2nc(NCc3ccc4nc(C)ccc4c3)c3c(n2)C(=O)N(C(C)C)C3)CC1 [Example 242, 2-(4-acetylpiperazin-1-yl)-6-isopropyl-4-((2-methylquinolin-6-yl)methylamino)-5H-pyrrolo[3,4-d]pyrimidin-7(6H)-one]	65 nM	10400 nM
CC(=O)N1CCN(c2nc3c(c(N4CCCC4c4ccc5ncccc5c4)n2)CN(C(C)C)C3=O)CC1 (centres unmarked) [Example 281, 4-(4-acetylpiperazin-1-yl)-8-propan-2-yl-2-(2-quinolin-6-ylpyrrolidin-1-yl)-3,5,8-triazabicyclo[4.3.0]nona-1,3,5-trien-7-one]	140 nM	11400 nM
COc1cccc(C2CCCN2c2nc(N3CCN(C(C)=O)CC3)nc3c2CN(C(C)C)C3=O)c1 (centres unmarked) [Example 131, 2-(4-Acetylpiperazin-1-yl)-6-isopropyl-4-(2-(3-methoxyphenyl)pyrrolidin-1-yl)-5H-pyrrolo[3,4-d]pyrimidin-7(6H)-one]	6000 nM	40000 nM
CCC(C)N1Cc2c(NCc3cc4ccccc4cn3)nc(N3CCN(C(C)=O)CC3)nc2C1=O (single isomer, unassigned; (-)) [Example 311, (−)-2-(4-acetylpiperazin-1-yl)-4-(3-isoquinolylmethylamino)-6-sec-butyl-5H-pyrrolo[3,4-d]pyrimidin-7-one]	28 nM	1680 nM
CCOc1ccc([C@@H](C)Nc2nc(N3CCN(C(C)=O)CC3)nc3c2CN(C(C)C)C3=O)cc1Cl [Example 159, (R)-2-(4-acetylpiperazin-1-yl)-4-(1-(3-chloro-4-ethoxyphenyl)ethylamino)-6-isopropyl-5H-pyrrolo[3,4-d]pyrimidin-7(6H)-one]	37 nM	547 nM
CCN(Cc1cc2ccccc2cn1)c1nc(N2CCN(C(C)=O)CC2)nc2c1CN(C(C)C)C2=O [Example 245, 2-(4-acetylpiperazin-1-yl)-4-(ethyl(isoquinolin-3-ylmethyl)amino)-6-isopropyl-5H-pyrrolo[3,4-d]pyrimidin-7(6H)-one]	28 nM	2160 nM
CC(=O)N1CCN(c2nc(NC(C)(C)Cc3ccc(C)cc3)c3c(n2)C(=O)N(C(C)C)C3)CC1 [Example 164, 2-(4-acetylpiperazin-1-yl)-6-isopropyl-4-(2-methyl-1-p-tolylpropan-2-ylamino)-5H-pyrrolo[3,4-d]pyrimidin-7(6H)-one]	56 nM	2910 nM
CCC(C)N1Cc2c(NCc3cnn(-c4ccccc4)c3)nc(N3CCN(C(C)=O)CC3)nc2C1=O (single isomer, unassigned; (+)) [Example 306, (+)-4-(4-acetylpiperazin-1-yl)-8-butan-2-yl-2-[(1-phenylpyrazol-4-yl)methylamino]-3,5,8-triazabicyclo[4.3.0]nona-1,3,5-trien-7-one]	34 nM	3970 nM
CC(=O)N1CCN(c2nc(NCc3cncc4ccccc34)c3c(n2)C(=O)N(C(C)C)C3)CC1 [Example 229, 2-(4-acetylpiperazin-1-yl)-6-isopropyl-4-(isoquinolin-4-ylmethylamino)-5H-pyrrolo[3,4-d]pyrimidin-7(6H)-one]	120 nM	14600 nM
CCC(C)N1Cc2c(NCc3cnc4ccccc4c3)nc(N3CCN(C(C)=O)CC3)nc2C1=O (single isomer, unassigned; (+)) [Example 308, (+)-2-(4-acetylpiperazin-1-yl)-4-(3-quinolylmethylamino)-6-sec-butyl-5H-pyrrolo[3,4-d]pyrimidin-7-one]	20 nM	10300 nM
CC(=O)N1CCN(c2nc(N[C@H](C)c3ccc(OC(F)F)cc3)c3c(n2)C(=O)N(C(C)C)C3)CC1 [Example 114, 2-(4-acetylpiperazin-1-yl)-4-({(1R)-1-[4-(difluoromethoxy)phenyl]ethyl}amino)-6-isopropyl-5,6-dihydro-7H-pyrrolo[3,4-d]pyrimidin-7-one]	71 nM	3300 nM
CC(=O)N1CCN(c2nc(N[C@H](C)c3ccc(I)cc3)c3c(n2)C(=O)N(C(C)C)C3)CC1 [Example 165, (R)-2-(4-acetylpiperazin-1-yl)-4-(1-(4-iodophenyl)ethylamino)-6-isopropyl-5H-pyrrolo[3,4-d]pyrimidin-7(6H)-one]	43 nM	11100 nM
CC(=O)N1CCN(c2nc(NC3(c4ccc(Cl)cc4)CC3)c3c(n2)C(=O)N(C(C)C)C3)CC1 [Example 130]	2300 nM	13300 nM
COc1ccc(CC(C)(C)Nc2nc(N3CCN(C(C)=O)CC3)nc3c2CN(C(C)C)C3=O)cc1 [Example 196, 2-(4-acetylpiperazin-1-yl)-6-isopropyl-4-(1-(4-methoxyphenyl)-2-methylpropan-2-ylamino)-5H-pyrrolo[3,4-d]pyrimidin-7(6H)-one]	90 nM	2180 nM
CC(=O)N1CCN(c2nc3c(c(N4CCCC4c4cccc(Cl)c4)n2)CN(C(C)C)C3=O)CC1 (centres unmarked) [Example 132, 2-(4-Acetylpiperazin-1-yl)-4-(2-(3-chlorophenyl)pyrrolidin-1-yl)-6-isopropyl-5H-pyrrolo[3,4-d]pyrimidin-7(6H)-one]	1400 nM	13300 nM
CCC(c1ccccc1)C1CCCN1c1nc(N2CCN(C(C)=O)CC2)nc2c1CN(C(C)C)C2=O (centres unmarked) [Example 275, 4-(4-acetylpiperazin-1-yl)-2-[2-(1-phenylpropyl)pyrrolidin-1-yl]-8-propan-2-yl-3,5,8-triazabicyclo[4.3.0]nona-2,4,10-trien-7-one]	760 nM	10300 nM
CC(=O)N1CCN(c2nc(NC(C)(C)Cc3ccc(F)cc3)c3c(n2)C(=O)N(C(C)C)C3)CC1C (centres unmarked) [Example 138, 2-(4-Acetyl-3-methyl-piperazin-1-yl)-4-[2-(4-fluoro-phenyl)-1,1-dimethyl-ethylamino]-6-isopropyl-5,6-dihydro-pyrrolo[3,4-d]pyrimidin-7-one]	750 nM	16200 nM
CC(=O)N(C)C1CCN(c2nc(NCc3cnc4ccccc4c3)c3c(n2)C(=O)N(C(C)C)C3)C1 (centres unmarked) [Example 208, N-(1-(6-isopropyl-7-oxo-4-(quinolin-3-ylmethylamino)-6,7-dihydro-5H-pyrrolo[3,4-d]pyrimidin-2-yl)pyrrolidin-3-yl)-N-methylacetamide]	680 nM	17600 nM
